Assay results taken from patent US20240165062A1, “COMPOSITION FOR INCREASING MUSCLE” (YUKI GOSEI KOGYO CO., LTD., priority 2022, published 2024).

How the values were obtained:
[1] = system: MyHCI gene in C2C12 cells; settings: β-alanine added twice at 24 h interval, vs 1×PBS control, FIG. 1
Experimental: (§1) In this example, β-alanine was added to C2C12 cells and the expression of MyHCI (slow muscle marker), MyHCIIa (fast muscle marker), MyHCIIb (fast muscle marker), and MyHCIIx (fast muscle marker) genes were examined.
(§2) High Pure RNA Isolation Kit (Roche, Basel, Switzerland) was used for total RNA preparation. C2C12 cells were seeded at a concentration of 5.0×10^4 cells/mL in 5 mL Dish. After 24 hours of incubation, β-alanine was added. 1×PBS was added to the control cells at the same volume as the added amount of β-alanine. Twenty-four hours after the addition of 3-alanine, sample was secondary added. After 24 hours of incubation, the culture supernatant was aspirated off. After washing the cells twice with 1×PBS, 1×PBS 200 μL/dish and […] of Lysis/-binding buffer included in High Pure RNA Isolation Kit were added to the entire dish, and the total amount was collected in a 1.5-mL tube. The collected samples were suspended using a vortex mixer for 60 seconds. The filter tube and the collection tube in the kit were assembled, the sample solution was added to the filter tube, and centrifuged at 4° C., 9200×g for 15 seconds. The liquid drained into the collection tube was discarded, and the filter tube and collection tube were assembled again. In a 1.5-mL tube, 90 μL of DNase Incubation Buffer per sample and 10 μL of DNase I per sample were mixed. The mixture was added to the filter tubes and incubated at room temperature for 15 minutes. After incubation, Wash buffer I (500 μL) was added to the filter tubes and centrifuged at 4° C., 9200×g for 15 seconds.

[2] = system: MyHCIIa gene in C2C12 cells; settings: β-alanine added twice at 24 h interval, vs 1×PBS control, FIG. 1
Experimental: as §1, §2

[3] = system: MyHCIIb gene in C2C12 cells; settings: β-alanine added twice at 24 h interval, vs 1×PBS control, FIG. 1
Experimental: as §1, §2

[4] = system: MyHCIIx gene in C2C12 cells; settings: β-alanine added twice at 24 h interval, vs 1×PBS control, FIG. 1
Experimental: as §1, §2

[5] = system: MyHCI gene in C2C12 cells; settings: differentiated C2C12 cells, β-alanine 0.5 mM, 1 mM and 10 mM for 2 days, FIG. 4
Experimental: (§3) FIG. 4 is graphs showing the mRNA expressions of MyHCI (slow muscle)(A), MyHCIIa (fast muscle)(B), MyHCIIx (fast muscle)(C), and MyHCIIb (fast muscle) (D) measured by RT-qPCR in the C2C12 cells wherein the differentiated C2C12 cells were then treated by addition of 0.5, 1, or 10 (mM) of β-alanine for 2 days.
as §1
(§4) C2C12 cells were seeded in 6-well plates at a concentration of 2.0×10^5 cells/mL, and after 48 hours the medium was replaced with DMEM medium containing 2% Horse Serum (HS) (Thermo Fisher Scientific) to induce differentiation. Further, after 24 hours, the medium was replaced with DMEM medium containing 2% HS. The medium was changed every 2 days thereafter, and further the medium changes and the additions of β-alanine (0.5 mM, 1 mM, or 10 mM) were conducted on the 8th and 9th day after seeding. The cells on 10th day after seeding were used for the experiments. For controls, 1×PBS was added at the same volume as the amount of β-alanine.
(§5) Total RNA preparation and RT-qPCR were performed according to Example 1.

[6] = system: MyHCIIa gene in C2C12 cells; settings: differentiated C2C12 cells, β-alanine 0.5 mM, 1 mM and 10 mM for 2 days, FIG. 4
Experimental: as §3, §1, §4, §5

[7] = system: MyHCIIb gene in C2C12 cells; settings: differentiated C2C12 cells, β-alanine 1 mM and 10 mM for 2 days, FIG. 4
Experimental: as §3, §1, §4, §5

[8] = system: MyHCIIx gene in C2C12 cells; settings: differentiated C2C12 cells, β-alanine 1 mM and 10 mM for 2 days, FIG. 4
Experimental: as §3, §1, §4, §5

MyoD gene in C2C12 cells = settings: vs 1×PBS control, FIG. 2
C2C12 cells = settings: β-alanine 0.5 mM or 1.0 mM every 2 days, 9 days from induction of differentiation, FIG. 3

**Q.** For NCCC(=O)O [β-alanine], which “expression of the slow muscle marker MyHCI” value [1] is on record?
**A.** increased

**Q.** What about the “expression of the fast muscle marker MyHCIIa” value [2] of the same molecule?
**A.** increased

**Q.** And the “expression of the fast muscle marker MyHCIIb” value [3]?
**A.** increased

**Q.** What about the “expression of the fast muscle marker MyHCIIx” value [4] of the same molecule?
**A.** increased

**Q.** What about the “MyHCI (slow muscle marker) mRNA expression” value [5] of the same molecule?
**A.** significantly increased

**Q.** What about the “MyHCIIa (fast muscle marker) gene expression” value [6] of the same molecule?
**A.** concentration-dependent enhancement

**Q.** And the “MyHCIIb (fast muscle) mRNA expression” value [7]?
**A.** significantly increased

**Q.** And the “MyHCIIx (fast muscle) mRNA expression” value [8]?
**A.** significantly increased

**Q.** And the “expression of MyoD, a transcriptional regulator of muscle differentiation” value (MyoD gene in C2C12 cells)?
**A.** increased

**Q.** What about the “differentiation of myoblasts into myotube cells” value (C2C12 cells) of the same molecule?
**A.** promoted

**Q.** What about the “number of myotubular cells” value (C2C12 cells) of the same molecule?
**A.** increased

**Q.** What about the “ratio of slow muscle cells (slow muscle area / myotube area)” value (C2C12 cells) of the same molecule?
**A.** increased as the amount of β-alanine increased
